Paper PMC7659976, “Benzobicyclo[3.2.1]octene Derivatives as a New Class of Cholinesterase Inhibitors” (Molecules, 2020)
Read-outs that look alike come from different tables or passages of the source.

Legend:
[1] = biological target: BChE derived from purified human plasma (Homo sapiens, UniProt P06276); assay: biochemical; details: 0.1 M phosphate buffer pH 7.4, 25 °C, ATCh substrate
recombinant human AChE = recombinant human AChE (Homo sapiens, UniProt P22303); assay: biochemical; assay type: biochemical; details: for IC50: 0.1 M phosphate buffer pH 7.4, 25 °C, ATCh substrate, read-out: Inhibition of human AChE, IC50 ± SEM
AChE = test system: AChE; parameters: method as in doi:10.1016/j.molstruc.2018.05.027, doi:10.3906/kim-1903-74; details: photoproducts of Figure 1; read-out: AChE inhibition IC50; cited from earlier work
BChE [2] = assay type: biochemical; details: compared to huperzine A
BChE [3] = test system: BChE; parameters: method as in doi:10.1016/j.molstruc.2018.05.027, doi:10.3906/kim-1903-74; details: photoproducts of Figure 1; read-out: BChE inhibition IC50; cited from earlier work
[4] = Table 1, benzobicyclo[3.2.1]octadiene benzylamines, read-out: Inhibition of BChE, IC50 ± SEM
[5] = Table 2, oximes and oxime ethers, read-out: Inhibition of BChE, IC50 ± SEM
[6] = Table 4, acylated furo-benzobicyclo[3.2.1]octenes/octadienes
[7] = Table 4, acylated furo-benzobicyclo[3.2.1]octenes/octadienes, read-out: Inhibition of human BChE, IC50 ± SEM
[8] = Table 3, epoxides, alcohols and ethers
[9] = Table 3, epoxides, alcohols and ethers, read-out: Inhibition of human BChE, IC50 ± SEM

BChE derived from purified human plasma, sequence (P06276 29-602): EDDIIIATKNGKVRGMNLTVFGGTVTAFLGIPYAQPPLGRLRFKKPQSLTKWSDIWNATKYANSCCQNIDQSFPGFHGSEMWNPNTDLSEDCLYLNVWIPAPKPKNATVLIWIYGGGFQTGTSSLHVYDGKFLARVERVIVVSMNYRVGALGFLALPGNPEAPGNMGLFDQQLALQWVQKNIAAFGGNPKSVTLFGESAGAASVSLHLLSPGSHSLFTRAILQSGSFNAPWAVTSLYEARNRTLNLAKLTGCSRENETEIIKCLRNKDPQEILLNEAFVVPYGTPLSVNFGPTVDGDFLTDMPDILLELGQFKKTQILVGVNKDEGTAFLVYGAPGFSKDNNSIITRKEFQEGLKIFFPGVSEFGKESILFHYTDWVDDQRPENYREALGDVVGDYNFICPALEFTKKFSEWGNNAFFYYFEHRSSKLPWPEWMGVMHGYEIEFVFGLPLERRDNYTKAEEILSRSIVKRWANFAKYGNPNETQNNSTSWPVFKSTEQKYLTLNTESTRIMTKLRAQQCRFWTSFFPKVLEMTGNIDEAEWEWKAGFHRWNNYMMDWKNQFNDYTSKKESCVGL
recombinant human AChE, sequence (P22303 32-614): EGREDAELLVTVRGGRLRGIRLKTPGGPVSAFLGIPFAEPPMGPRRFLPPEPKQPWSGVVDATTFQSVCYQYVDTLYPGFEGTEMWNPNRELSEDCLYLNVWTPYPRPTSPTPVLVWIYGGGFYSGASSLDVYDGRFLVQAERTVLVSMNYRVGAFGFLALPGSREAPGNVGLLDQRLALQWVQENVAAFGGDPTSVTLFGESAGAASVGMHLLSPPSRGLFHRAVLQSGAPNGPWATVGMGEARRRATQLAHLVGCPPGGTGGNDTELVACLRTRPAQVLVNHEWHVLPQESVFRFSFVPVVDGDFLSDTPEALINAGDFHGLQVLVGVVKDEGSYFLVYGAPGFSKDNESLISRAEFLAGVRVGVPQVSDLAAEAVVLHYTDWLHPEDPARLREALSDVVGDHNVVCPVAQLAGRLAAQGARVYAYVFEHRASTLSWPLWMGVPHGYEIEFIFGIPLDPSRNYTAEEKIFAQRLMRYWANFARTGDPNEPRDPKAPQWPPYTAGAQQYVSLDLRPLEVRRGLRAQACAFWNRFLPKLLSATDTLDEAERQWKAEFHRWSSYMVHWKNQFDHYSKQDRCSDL

Clc1ccc(C2=CCC3CC2c2ccccc23)cc1 (stereo not drawn) [Compound 1]
IC50 [1, 4]: 260 ± 120 µM

Cc1ccccc1CNc1ccc(C2=CCC3CC2c2ccccc23)cc1 (stereo not drawn) [Compound 9]
IC50 [1, 4]: 240 ± 210 µM

COc1ccc(CNc2ccc(C3=CCC4CC3c3ccccc34)cc2)cc1 (stereo not drawn) [Compound 17]
IC50 [1, 4]: 120 ± 64 µM

Nc1ccc(C2=CCC3CC2c2ccccc23)cc1 (stereo not drawn) [Compound 20]
IC50 [1, 4]: 182 ± 98 µM

CCO/N=C/c1cc2c(o1)CC1CC2c2ccccc21 (stereo not drawn) [Compound 26]
IC50 [1, 5]: 380 ± 250 µM

CCCO/N=C\c1cc2c(o1)CC1CC2c2ccccc21 (stereo not drawn) [Compound 27, (Z)-9,10-Dihydro-4H-4,9-methanobenzo[4,5]cyclohepta[1,2-b]furan-2-carbaldehyde O-propyl oxime]
IC50 [1, 5]: 74 ± 19 µM

CC(C)O/N=C/c1cc2c(o1)CC1CC2c2ccccc21 (stereo not drawn) [Compound 28]
IC50 [1, 5]: 24 ± 3 µM

C=CCO/N=C/c1cc2c(o1)CC1CC2c2ccccc21 (stereo not drawn) [Compound 29]
IC50 [1, 5]: 100 ± 32 µM

CC(=O)O/N=C/c1cc2c(o1)CC1CC2c2ccccc21 (stereo not drawn) [Compound 30]
IC50 [1, 5]: 61 ± 36 µM

CC(C)O/N=C/C/C=C1\C(O)=CC2CC1c1ccccc12 (stereo not drawn) [Compound 31]
IC50 [1, 5]: 90 ± 40 µM

CC(C)O/N=C/C/C=C1\C(O)CC2CC1c1ccccc12 (stereo not drawn) [Compound 32]
IC50 [1, 5]: 31 ± 4 µM

C=CCCO/N=C/C(=O)/C=C1\C=CC2CC1c1ccccc12 (stereo not drawn) [Compound 33]
IC50 [1, 5]: 140 ± 49 µM

CC(=O)O/N=C/C/C=C1\C(O)CC2CC1c1ccccc12 (stereo not drawn) [Compound 34]
IC50 [1, 5]: 78 ± 31 µM

O=C1CC2CC(/C1=C/C/C=N/OCCCCl)c1ccccc12 (stereo not drawn) [Compound 35]
IC50 [1, 5]: 60 ± 11 µM

C/C(O)=C/C=C1\C(O)CC2CC1c1ccccc12 [Compound 51, (5R,9R,Z)-6-((Z)-3-Hydroxybut-2-ene-1-ilydene)-6,7,8,9-tetrahydro-5H-5,9-methano-benzo[7]annulen-7-ol]
IC50 (recombinant human AChE; [6]): 8.3 ± 4 µM
IC50 [1, 7]: > 300 µM

CCC(=O)C/C=C1\C(O)=CC2CC1c1ccccc12 [Compound 53, (Z)-1-((5R,9R)-7-Hydroxy-5,9-dihydro-6H-5,9-methanobenzo[7]annulen-6-ilydene)-pentan-3-one]
IC50 (recombinant human AChE; [6]): 188 ± 133 µM
IC50 [1, 7]: 146 ± 30 µM

Clc1ccc(C2C=CC3CC2c2ccccc23)cc1 (stereo not drawn) [endo-1, 11-(4-Chlorophenyl)tricyclo[6.3.1.0^²,7]dodeca-2,4,6,9-tetraene]
IC50 (AChE): 17.5 µM

C1=CC(c2ccncc2)C2CC1c1ccccc12 (stereo not drawn) [endo-2]
Potency as BChE inhibitor in comparison to huperzine A (BChE [2]): about five times more potent
IC50 (BChE [3]): 8.8 µM

C1=C[C@H](c2ccc(NCc3ccccc3)cc2)[C@H]2C[C@@H]1c1ccccc12 [endo-4, N-Benzyl-4-((5R,6S,9S)-6,9-dihydro-5H-5,9-methanobenzo[7]annulen-6-yl)aniline]
IC50 [1, 4]: 110 ± 77 µM

C1=C[C@H](c2ccc(NCc3ccco3)cc2)[C@H]2C[C@@H]1c1ccccc12 [endo-7, 4-((5R,6S,9S)-6,9-Dihydro-5H-5,9-methanobenzo[7]annulen-6-yl)-N-(fur-2-ylmethyl)aniline]
IC50 [1, 4]: ≥ 500 µM

C1=C[C@H](c2ccc(NCc3cccs3)cc2)[C@H]2C[C@@H]1c1ccccc12 [endo-8, 4-((5R,6S,9S)-6,9-dihydro-5H-5,9-methanobenzo[7]annulen-6-yl)-N-(thien-2-ylmethyl)aniline]
IC50 [1, 4]: > 500 µM

Cc1ccccc1CNc1ccc(C2C=CC3CC2c2ccccc23)cc1 (stereo not drawn) [endo-9]
IC50 [1, 4]: > 500 µM

Cc1cccc(CNc2ccc(C3C=CC4CC3c3ccccc34)cc2)c1 (stereo not drawn) [endo-10]
IC50 [1, 4]: 63 ± 13 µM

Cc1ccc(CNc2ccc(C3C=CC4CC3c3ccccc34)cc2)cc1 (stereo not drawn) [endo-11]
IC50 [1, 4]: ≥ 500 µM

Clc1cccc(CNc2ccc(C3C=CC4CC3c3ccccc34)cc2)c1 (stereo not drawn) [endo-13]
IC50 [1, 4]: > 500 µM

Clc1ccc(CNc2ccc(C3C=CC4CC3c3ccccc34)cc2)cc1 (stereo not drawn) [endo-14]
IC50 [1, 4]: > 500 µM

COc1ccccc1CNc1ccc(C2C=CC3CC2c2ccccc23)cc1 (stereo not drawn) [endo-15]
IC50 [1, 4]: > 500 µM

COc1cccc(CNc2ccc(C3C=CC4CC3c3ccccc34)cc2)c1 (stereo not drawn) [endo-16]
IC50 [1, 4]: > 500 µM

COc1ccc(CNc2ccc(C3C=CC4CC3c3ccccc34)cc2)cc1 (stereo not drawn) [endo-17]
IC50 [1, 4]: > 500 µM

Fc1ccccc1CNc1ccc(C2C=CC3CC2c2ccccc23)cc1 (stereo not drawn) [endo-18]
IC50 [1, 4]: > 500 µM

Fc1cccc(CNc2ccc(C3C=CC4CC3c3ccccc34)cc2)c1 (stereo not drawn) [endo-19]
IC50 [1, 4]: > 500 µM

Fc1ccc(CNc2ccc(C3C=CC4CC3c3ccccc34)cc2)cc1 (stereo not drawn) [endo-20]
IC50 [1, 4]: > 500 µM

c1ccc([C@H]2C3OC3[C@@H]3C[C@H]2c2ccccc23)cc1 (stereo partly drawn) [endo-38, (2R,7R,8S)-8-Phenyl-1a,7,8,8a-tetrahydro-2H-2,7-methanobenzo[4,5]cyclohepta[1,2-b]-oxirene]
Potency for AChE relative to BChE (fold lower) (recombinant human AChE; AChE versus BChE): 3 fold
IC50 (recombinant human AChE; [8]): 62 ± 8 µM
IC50 [1, 9]: 22 ± 5 µM

COc1ccc([C@H]2[C@@H]3OC3[C@@H]3C[C@H]2c2ccccc23)cc1 (stereo partly drawn) [endo-39, (2R,7R,8S,8as)-8-(4-Methoxyphenyl)-1a,7,8,8a-tetrahydro-2H-2,7-methanobenzo[4,5]cyclohepta[1,2-b]oxirene]
IC50 (recombinant human AChE; [8]): > 100 µM
IC50 [1, 9]: 33 ± 6 µM

CCCOC1C[C@@H]2C[C@@H](c3ccccc32)[C@H]1c1ccccc1 (stereo partly drawn) [endo-43, (5R,6S,9S)-6-Phenyl-7-propoxy-6,7,8,9-tetrahydro-5H-5,9-methanobenzo[7]annulene]
IC50 (recombinant human AChE; [8]): > 100 µM
IC50 [1, 9]: 17 ± 2 µM

OCCCOC1CC2CC(c3ccccc32)C1c1ccccc1 [endo-45, 3-(((5R,6S,9S)-6-Phenyl-6,7,8,9-tetrahydro-5H-5,9-methanobenzo[7]annulen-7-il)oxy)propan-1-ol]
IC50 (recombinant human AChE; [8]): > 100 µM
IC50 [1, 9]: 90 ± 24 µM

CCOC1C[C@@H]2C[C@@H](c3ccccc32)[C@H]1c1ccc(OC)cc1 (stereo partly drawn) [endo-46, (5R,6S,9S)-7-Ethoxy-6-(4-methoxyphenyl)-6,7,8,9-tetrahydro-5H-5,9-methanobenzo-[7]annulene]
IC50 (recombinant human AChE; [8]): 270 ± 110 µM
IC50 [1, 9]: > 500 µM

CCCOC1C[C@@H]2C[C@@H](c3ccccc32)[C@H]1c1ccc(OC)cc1 (stereo partly drawn) [endo-47, (5R,6S,9S)-6-(4-Methoxyphenyl)-7-propoxy-6,7,8,9-tetrahydro-5H-5,9-methanobenzo[7]annulene]
IC50 (recombinant human AChE; [8]): > 100 µM
IC50 [1, 9]: > 200 µM
